Patent US7935687B2, “Methods for treating spinal muscular atrophy using tetracycline compounds” (Paratek Pharmaceuticals, Inc., priority 2007, dated 2011)

Each compound was assayed on SMN2 mRNA (assay: In vitro cell-free splicing assay for inclusion of exon 7). Details: not given.
Assay type: biochemical
Description: The following example illustrates how tetracycline compound of the invention are active in an in vitro cell-free assay for the inclusion of exon 7 in […] mRNA. SMN1 and SMN2 pre-mRNA were prepared by in vitro transcription using T7 RNA polymerase of minigene templates that include exon 6, a truncated portion of intron 6, exon 7, intron 7 and a portion of exon 8 in the presence of ^32P-UTP. Labeled RNA was purified on a denaturing polyacrylamide gel followed by phenol extraction and ethanol precipitation of the RNA.
In vitro cell-free splicing of SMN1 and SMN2 transcripts was carried out in a 10 μl reaction volume at 30° C. for 3 hours. The reactions contained 10 fmol of labeled pre-mRNA, 30% (3 VI) HeLa cell nuclear extract (in 20 mM HEPES, pH 7.4, 20% (v/v) glycerol, 0.1M KC1, 0.2 mM EDTA), 1.3% (w/v) polyvinyl alcohol, 1.56 mM MgCl2, 32 mM HEPES, pH 7.4, 0.5 mM ATP, 20 mM creatine phosphate and either 2 μl of test compound (in 20 mM HEPES, pH 7.4, 0.1M KC1, 0.2 mM EDTA) or buffer alone. Following incubation, 200 μl of a solution containing 0.3M NaAc and 0.2% SDS was added to the reaction. Proteins were removed by extraction with an equal volume of phenol and RNA was precipitated with 2.5 volumes of ethanol. RNA was resuspended in formamide sample buffer and separated on a 9% urea-denaturing polyacrylamide gel. Quantitation of splicing was based on phosphorimage analysis (Fujix BAS2000 or Fujifilm FLA-5100). In this assay, percentage exon 7 inclusion averages 12% for the unmutated SMN1 mRNA and 4% for the SMN2 mRNA.
The in vitro activities for exon 7 splicing are expressed as the Emax (the maximum percentage exon 7 inclusion observed) and Cmax (the lowest compound concentration at which the maximum inclusion occurs in μM). For Emax, percentage inclusion values of less than 10% are indicated by “*”, values of 10-20% are indicated by “**”, and values greater than 20% are indicated by “***”. For Cmax data, concentrations of greater than 40 μM are indicated by “*”, concentrations between 40 and 10 μM are represented by “**” and concentrations of less than 10 μM are represented by “***”.

**Q.** With `CN(C)C1C(O)=C(C(N)=O)C(=O)C2(O)C(O)=C3C(=O)c4c(O)ccc(-c5cccc(C(=O)NCCN6CCCC6)c5)c4CC3CC12` (centres unmarked) [CR] as the compound, how does the “Cmax (lowest compound concentration at which the maximum exon 7 inclusion occurs)” value (shortened to “Cmax”) read?
**A.** The value was “** (key: *: concentrations of greater than 40 μM; **: concentrations between 40 and 10 μM; ***: concentrations of less than 10 μM)”.

**Q.** And the “Emax (maximum percentage exon 7 inclusion observed)” value?
**A.** Its value is “*** (key: *: percentage inclusion values of less than 10%; **: values of 10-20%; ***: values greater than 20%)”.

**Q.** For `CN(C)CCCNCc1cccc(-c2ccc(O)c3c2CC2CC4C(N(C)C)C(O)=C(C(N)=O)C(=O)C4(O)C(O)=C2C3=O)c1` (centres unmarked) [CX], which “Cmax” value is on record?
**A.** The value was “*** (key: *: concentrations of greater than 40 μM; **: concentrations between 40 and 10 μM; ***: concentrations of less than 10 μM)”.

**Q.** And the “Emax (maximum percentage exon 7 inclusion observed)” value?
**A.** The value was “** (key: *: percentage inclusion values of less than 10%; **: values of 10-20%; ***: values greater than 20%)”.

**Q.** Which results are given for `CN(C)CCNCc1cccc(-c2ccc(O)c3c2CC2CC4C(N(C)C)C(O)=C(C(N)=O)C(=O)C4(O)C(O)=C2C3=O)c1` (centres unmarked) [CS]?
**A.** Cmax (lowest compound concentration at which the maximum exon 7 inclusion occurs): *** (key: *: concentrations of greater than 40 μM; **: concentrations between 40 and 10 μM; ***: concentrations of less than 10 μM); Emax (maximum percentage exon 7 inclusion observed): ** (key: *: percentage inclusion values of less than 10%; **: values of 10-20%; ***: values greater than 20%)

**Q.** For `CN(C)CCN(C)Cc1cccc(-c2ccc(O)c3c2CC2CC4C(N(C)C)C(O)=C(C(N)=O)C(=O)C4(O)C(O)=C2C3=O)c1` (centres unmarked) [CT], which “Cmax” value is on record?
**A.** The value was “** (concentrations between 40 and 10 μM)”.

**Q.** And the “Emax (maximum percentage exon 7 inclusion observed)” value?
**A.** The value was “** (values of 10-20%)”.

Same assay, conditions: HeLa cell nuclear extract, 30° C., 3 hours

**Q.** What does the source list for `CN(C)C1C(O)=C(C(N)=O)C(=O)C2(O)C(O)=C3C(=O)c4c(O)ccc(-c5cccc(C=CC#N)c5)c4CC3CC12` (centres unmarked) [CO]?
**A.** Cmax (lowest compound concentration at which the maximum exon 7 inclusion occurs): ** (concentrations between 40 and 10 μM); Emax (maximum percentage exon 7 inclusion observed): ** (values of 10-20%)

**Q.** Which results are given for `CN(C)C1C(O)=C(C(N)=O)C(=O)C2(O)C(O)=C3C(=O)c4c(O)ccc(-c5cccc(C(=O)NCCN6CCOCC6)c5)c4CC3CC12` (centres unmarked) [CP]?
**A.** Cmax (lowest compound concentration at which the maximum exon 7 inclusion occurs): ** (concentrations between 40 and 10 μM); Emax (maximum percentage exon 7 inclusion observed): *** (values greater than 20%)

**Q.** For `CN(C)CCCN(C)Cc1cccc(-c2ccc(O)c3c2C[C@H]2C[C@H]4[C@H](N(C)C)C(O)=C(C(N)=O)C(=O)[C@@]4(O)C(O)=C2C3=O)c1` [Compound CU, (4S,4aS,5aR,12aS)-4-Dimethylamino-7-(3-{[(3-dimethylamino-propyl)-methyl-amino]-methyl}-phenyl)-3,10,12,12a-tetrahydroxy-1,11-dioxo-1,4,4a,5,5a,6,11,12a-octahydro-naphthacene-2-carboxylic Acid Amide], which “Cmax” value is on record?
**A.** The value was “*** (concentrations of less than 10 μM)”.

**Q.** And the “Emax (maximum percentage exon 7 inclusion observed)” value?
**A.** The value was “** (values of 10-20%)”.

**Q.** For `COCCCNC(=O)c1cccc(-c2ccc(O)c3c2CC2CC4C(N(C)C)C(O)=C(C(N)=O)C(=O)C4(O)C(O)=C2C3=O)c1` (centres unmarked) [CQ], which “Cmax” value is on record?
**A.** Its value is “* (concentrations of greater than 40 μM)”.

**Q.** And the “Emax (maximum percentage exon 7 inclusion observed)” value?
**A.** The value was “** (values of 10-20%)”.

**Q.** Which “Cmax” value does the source give for `CN(C)CCCCN(C)Cc1cccc(-c2ccc(O)c3c2CC2CC4C(N(C)C)C(O)=C(C(N)=O)C(=O)C4(O)C(O)=C2C3=O)c1` (centres unmarked) [CW] here?
**A.** The value was “*** (concentrations of less than 10 μM)”.

**Q.** What about the “Emax (maximum percentage exon 7 inclusion observed)” value of the same compound?
**A.** Its value is “** (values of 10-20%)”.

**Q.** For `CN(C)CCCCNCc1cccc(-c2ccc(O)c3c2CC2CC4C(N(C)C)C(O)=C(C(N)=O)C(=O)C4(O)C(O)=C2C3=O)c1` (centres unmarked) [CV], which “Cmax” value is on record?
**A.** Its value is “*** (concentrations of less than 10 μM)”.

**Q.** What about the “Emax (maximum percentage exon 7 inclusion observed)” value of the same compound?
**A.** The value was “** (values of 10-20%)”.
